From patent US20230067378A1, “COMPOSITIONS AND METHODS FOR THE TREATMENT OF ESTROGEN-DEPENDENT DISORDERS” (ObsEva S.A., priority 2018, published 2023)

System: pre-menopausal women
Assay: uterine bleeding pattern, clinical trial of compound (VI) 200 mg per day (choline salt) with add-back therapy (1.0 mg E2, 0.5 mg norethindrone acetate)
Type: in vivo, human
Procedure: The experiments described in this example were conducted as part of a single-center, open-label, randomized, parallel-group clinical trial in 32 pre-menopausal women. Following screening assessments, and during the second half of the menstrual cycle, women received norethindrone (5 mg, three-times daily for 10 days) to synchronize menstrual cycles. After menstrual cycle synchronization, subjects were randomized with a 1:1 ratio to one of two treatment arms: (i) a cohort receiving once-daily administration of compound (VI) (200 mg per day, administered in the form of a choline salt) with concurrent onset of add-back therapy administration for 10 weeks (“Concurrent-ABT”), or (ii) a cohort receiving pre-treatment with compound (VI) (200 mg per day, administered in the form of a choline salt) for 4 weeks followed by combined daily administration of compound (VI) and add-back therapy (“Delayed-ABT”). The add-back therapy used in these experiments contained 1.0 mg of E2 and 0.5 mg of norethindrone acetate, and was administered to subjects once daily.
The main treatment outcomes and endpoints measured during these experiments included (i) a qualitative assessment of uterine blood loss, which was recorded on a daily basis throughout the study by characterizing each subject's bleeding pattern using one of the following four categories: “no bleeding,” “spotting” (light staining, dark blood, no sanitary protection needed or only panty liner), “bleeding” (1-4 completely soiled maxi sanitary towels or 1-8 soiled tampons or equivalent combination of the two), or “heavy bleeding” (>4 completely soiled maxi sanitary towels or >8 soiled tampons or equivalent combination of the two); (ii) a bi-weekly assessment of each subject's circulating E2 concentration; (iii) a bi-weekly assessment of each subject's circulating progesterone concentration (measured using a validated commercial chemiluminescence immunoassay method (Elecsys Progesterone III, Roche, Burgess Hill, UK)); (iv) the pharmacokinetic profile of compound (VI) and the add-back therapy; and (v) adverse events.

[1] = Days 29-42, treatment A (Concurrent-ABT), N=14
[2] = Days 29-42, treatment B (Delayed-ABT), N=15
[3] = Days 43-56, Overall (A+B), N=29
[4] = Days 43-56, treatment A (Concurrent-ABT), N=14
[5] = Days 43-56, treatment B (Delayed-ABT), N=15
[6] = Days 57-70, Overall (A+B), N=29
[7] = Days 57-70, treatment A (Concurrent-ABT), N=14
[8] = Days 57-70, treatment B (Delayed-ABT), N=15
[9] = Delayed-ABT cohort, after add-back therapy was initiated in week 5

SMILES: COc1cc(F)c(-n2c(=O)[nH]c3csc(C(=O)O)c3c2=O)cc1OCc1c(OC)ccc(F)c1F [Compound (VI), 3-[2-fluoro-5-(2,3-difluoro-6-methoxybenzyloxy)4-methoxyphenyl]-2,4-dioxo-1,2,3,4-tetrahydrothieno [3,4d]pyrimidine-5-carboxylic acid]
- No Bleeding or Spotting, subjects (n), Plasma Estradiol Level 20-50 pg/mL [1]: 9
- No Bleeding or Spotting, subjects (n), Plasma Estradiol Level <20 pg/mL [1]: 1
- No Bleeding or Spotting, subjects (n), Plasma Estradiol Level >50 pg/mL [1]: 3
- No Bleeding, subjects (%), Plasma Estradiol Level 20-50 pg/mL [1]: (50.0%)
- No Bleeding, subjects (%), Plasma Estradiol Level <20 pg/mL [1]: (7.1%)
- No Bleeding, subjects (%), Plasma Estradiol Level >50 pg/mL [1]: (21.4%)
- No Bleeding, subjects (n), Plasma Estradiol Level 20-50 pg/mL [1]: 7
- No Bleeding, subjects (n), Plasma Estradiol Level <20 pg/mL [1]: 1
- No Bleeding, subjects (n), Plasma Estradiol Level >50 pg/mL [1]: 3
- No Bleeding or Spotting, subjects (%), Plasma Estradiol Level 20-50 pg/mL [2]: (46.7%)
- No Bleeding or Spotting, subjects (%), Plasma Estradiol Level <20 pg/mL [2]: (20.0%)
- No Bleeding or Spotting, subjects (%), Plasma Estradiol Level >50 pg/mL [2]: (20.0%)
- No Bleeding or Spotting, subjects (n), Plasma Estradiol Level 20-50 pg/mL [2]: 7
- No Bleeding or Spotting, subjects (n), Plasma Estradiol Level <20 pg/mL [2]: 3
- No Bleeding or Spotting, subjects (n), Plasma Estradiol Level >50 pg/mL [2]: 3
- No Bleeding, subjects (%), Plasma Estradiol Level 20-50 pg/mL [2]: (33.3%)
- No Bleeding, subjects (%), Plasma Estradiol Level <20 pg/mL [2]: (20.0%)
- No Bleeding, subjects (%), Plasma Estradiol Level >50 pg/mL [2]: (13.3%)
- No Bleeding, subjects (n), Plasma Estradiol Level 20-50 pg/mL [2]: 5
- No Bleeding, subjects (n), Plasma Estradiol Level <20 pg/mL [2]: 3
- No Bleeding, subjects (n), Plasma Estradiol Level >50 pg/mL [2]: 2
- No Bleeding or Spotting, subjects (%), Plasma Estradiol Level 20-50 pg/mL [3]: (51.7%)
- No Bleeding or Spotting, subjects (%), Plasma Estradiol Level <20 pg/mL [3]: (13.8%)
- No Bleeding or Spotting, subjects (%), Plasma Estradiol Level >50 pg/mL [3]: (17.2%)
- No Bleeding or Spotting, subjects (n), Plasma Estradiol Level 20-50 pg/mL [3]: 15
- No Bleeding or Spotting, subjects (n), Plasma Estradiol Level <20 pg/mL [3]: 4
- No Bleeding or Spotting, subjects (n), Plasma Estradiol Level >50 pg/mL [3]: 5
- No Bleeding, subjects (%), Plasma Estradiol Level 20-50 pg/mL [3]: (37.9%)
- No Bleeding, subjects (%), Plasma Estradiol Level <20 pg/mL [3]: (10.3%)
- No Bleeding, subjects (%), Plasma Estradiol Level >50 pg/mL [3]: (13.8%)
- No Bleeding, subjects (n), Plasma Estradiol Level 20-50 pg/mL [3]: 11
- No Bleeding, subjects (n), Plasma Estradiol Level <20 pg/mL [3]: 3
- No Bleeding, subjects (n), Plasma Estradiol Level >50 pg/mL [3]: 4
- No Bleeding or Spotting, subjects (%), Plasma Estradiol Level 20-50 pg/mL [4]: (57.1%)
- No Bleeding or Spotting, subjects (%), Plasma Estradiol Level <20 pg/mL [4]: (7.1%)
- No Bleeding or Spotting, subjects (%), Plasma Estradiol Level >50 pg/mL [4]: (21.4%)
- No Bleeding or Spotting, subjects (n), Plasma Estradiol Level 20-50 pg/mL [4]: 8
- No Bleeding or Spotting, subjects (n), Plasma Estradiol Level <20 pg/mL [4]: 1
- No Bleeding or Spotting, subjects (n), Plasma Estradiol Level >50 pg/mL [4]: 3
- No Bleeding, subjects (%), Plasma Estradiol Level 20-50 pg/mL [4]: (50.0%)
- No Bleeding, subjects (%), Plasma Estradiol Level <20 pg/mL [4]: (7.1%)
- No Bleeding, subjects (%), Plasma Estradiol Level >50 pg/mL [4]: (21.4%)
- No Bleeding, subjects (n), Plasma Estradiol Level 20-50 pg/mL [4]: 7
- No Bleeding, subjects (n), Plasma Estradiol Level <20 pg/mL [4]: 1
- No Bleeding, subjects (n), Plasma Estradiol Level >50 pg/mL [4]: 3
- No Bleeding or Spotting, subjects (%), Plasma Estradiol Level 20-50 pg/mL [5]: (46.7%)
- No Bleeding or Spotting, subjects (%), Plasma Estradiol Level <20 pg/mL [5]: (20.0%)
- No Bleeding or Spotting, subjects (%), Plasma Estradiol Level >50 pg/mL [5]: (13.3%)
- No Bleeding or Spotting, subjects (n), Plasma Estradiol Level 20-50 pg/mL [5]: 7
- No Bleeding or Spotting, subjects (n), Plasma Estradiol Level <20 pg/mL [5]: 7
- No Bleeding or Spotting, subjects (n), Plasma Estradiol Level >50 pg/mL [5]: 2
- No Bleeding, subjects (%), Plasma Estradiol Level 20-50 pg/mL [5]: (26.7%)
- No Bleeding, subjects (%), Plasma Estradiol Level <20 pg/mL [5]: (13.3%)
- No Bleeding, subjects (%), Plasma Estradiol Level >50 pg/mL [5]: (6.7%)
- No Bleeding, subjects (n), Plasma Estradiol Level 20-50 pg/mL [5]: 4
- No Bleeding, subjects (n), Plasma Estradiol Level <20 pg/mL [5]: 2
- No Bleeding, subjects (n), Plasma Estradiol Level >50 pg/mL [5]: 1
- No Bleeding or Spotting, subjects (%), Plasma Estradiol Level 20-50 pg/mL [6]: (48.3%)
- No Bleeding or Spotting, subjects (%), Plasma Estradiol Level <20 pg/mL [6]: (20.7%)
- No Bleeding or Spotting, subjects (%), Plasma Estradiol Level >50 pg/mL [6]: (13.8%)
- No Bleeding or Spotting, subjects (n), Plasma Estradiol Level 20-50 pg/mL [6]: 14
- No Bleeding or Spotting, subjects (n), Plasma Estradiol Level <20 pg/mL [6]: 6
- No Bleeding or Spotting, subjects (n), Plasma Estradiol Level >50 pg/mL [6]: 4
- No Bleeding, subjects (%), Plasma Estradiol Level 20-50 pg/mL [6]: (41.4%)
- No Bleeding, subjects (%), Plasma Estradiol Level <20 pg/mL [6]: (20.7%)
- No Bleeding, subjects (%), Plasma Estradiol Level >50 pg/mL [6]: (10.3%)
- No Bleeding, subjects (n), Plasma Estradiol Level 20-50 pg/mL [6]: 12
- No Bleeding, subjects (n), Plasma Estradiol Level <20 pg/mL [6]: 6
- No Bleeding, subjects (n), Plasma Estradiol Level >50 pg/mL [6]: 3
- No Bleeding or Spotting, subjects (%), Plasma Estradiol Level 20-50 pg/mL [7]: (50.0%)
- No Bleeding or Spotting, subjects (%), Plasma Estradiol Level <20 pg/mL [7]: (21.4%)
- No Bleeding or Spotting, subjects (%), Plasma Estradiol Level >50 pg/mL [7]: (21.4%)
- No Bleeding or Spotting, subjects (n), Plasma Estradiol Level 20-50 pg/mL [7]: 7
- No Bleeding or Spotting, subjects (n), Plasma Estradiol Level <20 pg/mL [7]: 3
- No Bleeding or Spotting, subjects (n), Plasma Estradiol Level >50 pg/mL [7]: 3
- No Bleeding, subjects (%), Plasma Estradiol Level 20-50 pg/mL [7]: (42.9%)
- No Bleeding, subjects (%), Plasma Estradiol Level <20 pg/mL [7]: (21.4%)
- No Bleeding, subjects (%), Plasma Estradiol Level >50 pg/mL [7]: (21.4%)
- No Bleeding, subjects (n), Plasma Estradiol Level 20-50 pg/mL [7]: 6
- No Bleeding, subjects (n), Plasma Estradiol Level <20 pg/mL [7]: 3
- No Bleeding, subjects (n), Plasma Estradiol Level >50 pg/mL [7]: 3
- No Bleeding or Spotting, subjects (%), Plasma Estradiol Level 20-50 pg/mL [8]: (46.7%)
- No Bleeding or Spotting, subjects (%), Plasma Estradiol Level <20 pg/mL [8]: (20.0%)
- No Bleeding or Spotting, subjects (%), Plasma Estradiol Level >50 pg/mL [8]: (6.7%)
- No Bleeding or Spotting, subjects (n), Plasma Estradiol Level 20-50 pg/mL [8]: 7
- No Bleeding or Spotting, subjects (n), Plasma Estradiol Level <20 pg/mL [8]: 3
- No Bleeding or Spotting, subjects (n), Plasma Estradiol Level >50 pg/mL [8]: 1
- No Bleeding, subjects (%), Plasma Estradiol Level 20-50 pg/mL [8]: (40.0%)
- No Bleeding, subjects (%), Plasma Estradiol Level <20 pg/mL [8]: (20.0%)
- No Bleeding, subjects (%), Plasma Estradiol Level >50 pg/mL [8]: (0.0%)
- No Bleeding, subjects (n), Plasma Estradiol Level 20-50 pg/mL [8]: 6
- No Bleeding, subjects (n), Plasma Estradiol Level <20 pg/mL [8]: 3
- No Bleeding, subjects (n), Plasma Estradiol Level >50 pg/mL [8]: 0
- uterine bleeding / amenorrhea (Delayed-ABT cohort, Compound (VI) alone (first 4 weeks), FIG. 1A): amenorrhea in all subjects by week 5
- bleeding, frequency [9]: ≤ 8%
- spotting, frequency [9]: ≤ 11%
- women in amenorrhea within 5 days of treatment (Delayed-ABT group): ~20%
- women in amenorrhea (Delayed-ABT group, last 4 weeks of treatment, p=0.03): 40%
- Uterine Bleeding Pattern: amenorrhea (Delayed-ABT, Weeks 2-4, achieved in week 5): almost 100% amenorrhea (achieved in week 5)
- Uterine Bleeding Pattern: onset of spotting and bleeding (Delayed-ABT, Weeks 6-10): Spotting and bleeding began after 1 week of add-
